What was measured:
[1] = target: BRK (Homo sapiens (Human), UniProt Q13882); experiment: Kinase inhibition assay (KinaseProfiler, 33P-ATP); format: biochemical; settings: BRK(h), read-out: The percentage of the remaining active protein
[2] = target: IRR(h) (Homo sapiens (Human), UniProt P14616); experiment: Kinase inhibition assay (KinaseProfiler, 33P-ATP); format: biochemical; settings: read-out: The percentage of the remaining active protein
[3] = target: PDGFRα (D842V) (Homo sapiens (Human), UniProt P16234, D842V); experiment: Kinase inhibition assay (KinaseProfiler, 33P-ATP); format: biochemical; settings: PDGFRα(D842V)(h), read-out: The percentage of the remaining active protein
[4] = target: CDK5/p25(h) (Homo sapiens (Human), UniProt Q00535); experiment: Kinase inhibition assay (KinaseProfiler, 33P-ATP); format: biochemical; settings: read-out: The percentage of the remaining active protein
[5] = target: IKKε(h) (Homo sapiens (Human), UniProt Q14164); experiment: Kinase inhibition assay (KinaseProfiler, 33P-ATP); format: biochemical; settings: read-out: The percentage of the remaining active protein
[6] = target: Abl (M351T)(h) (Homo sapiens (Human), UniProt P00519, M351T); experiment: Kinase inhibition assay (KinaseProfiler, 33P-ATP); format: biochemical; settings: read-out: The percentage of the remaining active protein
[7] = target: cKit(V654A)(h) (Homo sapiens (Human), UniProt P10721, V654A); experiment: Kinase inhibition assay (KinaseProfiler, 33P-ATP); format: biochemical; settings: read-out: The percentage of the remaining active protein
[8] = target: HIPK2(h) (Homo sapiens (Human), UniProt Q9H2X6); experiment: Kinase inhibition assay (KinaseProfiler, 33P-ATP); format: biochemical; settings: read-out: The percentage of the remaining active protein
[9] = target: MSSK1(h) (Homo sapiens (Human), UniProt Q9UPE1); experiment: Kinase inhibition assay (KinaseProfiler, 33P-ATP); format: biochemical; settings: read-out: The percentage of the remaining active protein
[10] = target: PI3 Kinase (p110a(E545K)/p85a)(m) (Mus musculus (Mouse), UniProt P42337, E545K); experiment: Kinase inhibition assay (KinaseProfiler, 33P-ATP); format: biochemical; settings: read-out: The percentage of the remaining active protein
[11] = target: PAK2(h) (Homo sapiens (Human), UniProt Q13177); experiment: Kinase inhibition assay (KinaseProfiler, 33P-ATP); format: biochemical; settings: read-out: The percentage of the remaining active protein
[12] = target: PRAK(h) (Homo sapiens (Human), UniProt Q8IW41); experiment: Kinase inhibition assay (KinaseProfiler, 33P-ATP); format: biochemical; settings: read-out: The percentage of the remaining active protein
[13] = target: MAPKAP-K3(h) (Homo sapiens (Human), UniProt Q16644); experiment: Kinase inhibition assay (KinaseProfiler, 33P-ATP); format: biochemical; settings: read-out: The percentage of the remaining active protein
[14] = target: PI3 Kinase (p110b/p85b)(m) (Mus musculus (Mouse), UniProt Q8BTI9); experiment: Kinase inhibition assay (KinaseProfiler, 33P-ATP); format: biochemical; settings: read-out: The percentage of the remaining active protein
[15] = target: SGK(h) (Homo sapiens (Human), UniProt O00141); experiment: Kinase inhibition assay (KinaseProfiler, 33P-ATP); format: biochemical; settings: read-out: The percentage of the remaining active protein
[16] = target: CSK (Homo sapiens (Human), UniProt P41240); experiment: Kinase inhibition assay (KinaseProfiler, 33P-ATP); format: biochemical
[17] = target: PRK2(h) (Homo sapiens (Human), UniProt Q16513); experiment: Kinase inhibition assay (KinaseProfiler, 33P-ATP); format: biochemical; settings: read-out: The percentage of the remaining active protein
[18] = target: MAPK2(m) (Mus musculus (Mouse), UniProt P63085); experiment: Kinase inhibition assay (KinaseProfiler, 33P-ATP); format: biochemical; settings: read-out: The percentage of the remaining active protein
[19] = system: PC-9; experiment: Cell proliferation inhibition assay (MTT); format: cell-based; settings: Homo sapiens, 72 hours, read-out: Proliferation inhibitory activity IC50
Procedure: The cells were seeded in 96-well plates with 200 μL of cell suspension per well and incubated overnight in a cell culture medium with a cell concentration of 1 2×10^4 cells/mL. The next day, the supernatant was discarded (the suspension cell was centrifuged before it) and the cells were treated with gradient concentrations of the test compound, respectively. […] After 72 hours, add 20 μL of MTT reagent at a concentration of 5 mg/mL per well. After incubation for 2-4 h, the supernatant was discarded and 150 μL of DMSO was added to each well. […] Relative cell proliferation inhibition rate=([MUT]-[MUT])×100%/[MUT]. The experiment was repeated at least 3 times. Experimental data were expressed as mean, data statistics using t test, P<0.05 for the difference was statistically significant.

[20] = target: ROCK-I(h) (Homo sapiens (Human), UniProt Q13464); experiment: Kinase inhibition assay (KinaseProfiler, 33P-ATP); format: biochemical; settings: read-out: The percentage of the remaining active protein
[21] = target: GRK5(h) (Homo sapiens (Human), UniProt P34947); experiment: Kinase inhibition assay (KinaseProfiler, 33P-ATP); format: biochemical; settings: read-out: The percentage of the remaining active protein
[22] = target: CDK2/cyclinA(h) (Homo sapiens (Human), UniProt P24941); experiment: Kinase inhibition assay (KinaseProfiler, 33P-ATP); format: biochemical; settings: read-out: The percentage of the remaining active protein
[23] = target: Aurora-A(h) (Homo sapiens (Human), UniProt O14965); experiment: Kinase inhibition assay (KinaseProfiler, 33P-ATP); format: biochemical; settings: read-out: The percentage of the remaining active protein
[24] = target: PKCδ(h) (Homo sapiens (Human), UniProt Q05655); experiment: Kinase inhibition assay (KinaseProfiler, 33P-ATP); format: biochemical; settings: read-out: The percentage of the remaining active protein
[25] = target: IR(h) (Homo sapiens (Human), UniProt P06213); experiment: Kinase inhibition assay (KinaseProfiler, 33P-ATP); format: biochemical; settings: read-out: The percentage of the remaining active protein
[26] = target: cKit(h) (Homo sapiens (Human), UniProt P10721); experiment: Kinase inhibition assay (KinaseProfiler, 33P-ATP); format: biochemical; settings: 10 μM, read-out: The percentage of the remaining active protein
cKit(h), sequence (P10721 26-976): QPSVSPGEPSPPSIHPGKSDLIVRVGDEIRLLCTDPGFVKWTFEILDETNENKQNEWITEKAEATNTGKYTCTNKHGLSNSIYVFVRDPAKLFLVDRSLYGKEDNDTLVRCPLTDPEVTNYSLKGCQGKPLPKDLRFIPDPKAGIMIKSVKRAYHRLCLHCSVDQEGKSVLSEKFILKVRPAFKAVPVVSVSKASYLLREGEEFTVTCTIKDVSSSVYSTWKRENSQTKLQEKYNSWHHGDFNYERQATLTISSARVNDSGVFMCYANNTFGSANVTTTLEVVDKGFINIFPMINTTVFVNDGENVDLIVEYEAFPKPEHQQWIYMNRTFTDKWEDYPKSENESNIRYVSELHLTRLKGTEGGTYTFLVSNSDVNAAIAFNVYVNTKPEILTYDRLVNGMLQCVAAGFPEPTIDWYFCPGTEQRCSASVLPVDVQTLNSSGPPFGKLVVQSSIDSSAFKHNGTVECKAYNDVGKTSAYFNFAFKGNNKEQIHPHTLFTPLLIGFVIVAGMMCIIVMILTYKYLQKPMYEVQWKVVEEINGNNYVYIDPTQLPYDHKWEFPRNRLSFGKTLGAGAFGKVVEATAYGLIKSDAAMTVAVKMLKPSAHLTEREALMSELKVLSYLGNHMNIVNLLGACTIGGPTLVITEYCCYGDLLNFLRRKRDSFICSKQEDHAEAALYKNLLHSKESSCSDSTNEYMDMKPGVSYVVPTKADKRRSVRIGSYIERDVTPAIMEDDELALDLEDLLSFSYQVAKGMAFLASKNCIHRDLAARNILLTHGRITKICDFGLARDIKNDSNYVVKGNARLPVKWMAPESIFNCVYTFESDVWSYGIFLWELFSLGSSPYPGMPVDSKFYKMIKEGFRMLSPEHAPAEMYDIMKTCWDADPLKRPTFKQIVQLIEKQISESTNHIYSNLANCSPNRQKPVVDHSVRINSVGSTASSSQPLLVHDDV

CSK, sequence (P41240 whole entry): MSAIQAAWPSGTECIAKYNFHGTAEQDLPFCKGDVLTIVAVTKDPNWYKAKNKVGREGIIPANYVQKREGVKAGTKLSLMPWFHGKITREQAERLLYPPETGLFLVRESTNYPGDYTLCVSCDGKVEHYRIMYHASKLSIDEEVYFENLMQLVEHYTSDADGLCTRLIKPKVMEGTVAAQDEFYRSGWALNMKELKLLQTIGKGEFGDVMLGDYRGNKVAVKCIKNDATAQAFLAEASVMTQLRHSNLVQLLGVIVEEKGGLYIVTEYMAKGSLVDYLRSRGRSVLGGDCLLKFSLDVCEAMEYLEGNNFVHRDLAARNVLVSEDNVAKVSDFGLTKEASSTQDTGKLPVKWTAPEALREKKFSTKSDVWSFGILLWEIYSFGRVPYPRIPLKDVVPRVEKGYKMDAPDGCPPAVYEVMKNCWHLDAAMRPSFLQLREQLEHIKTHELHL
MAPKAP-K3(h), sequence (Q16644 whole entry): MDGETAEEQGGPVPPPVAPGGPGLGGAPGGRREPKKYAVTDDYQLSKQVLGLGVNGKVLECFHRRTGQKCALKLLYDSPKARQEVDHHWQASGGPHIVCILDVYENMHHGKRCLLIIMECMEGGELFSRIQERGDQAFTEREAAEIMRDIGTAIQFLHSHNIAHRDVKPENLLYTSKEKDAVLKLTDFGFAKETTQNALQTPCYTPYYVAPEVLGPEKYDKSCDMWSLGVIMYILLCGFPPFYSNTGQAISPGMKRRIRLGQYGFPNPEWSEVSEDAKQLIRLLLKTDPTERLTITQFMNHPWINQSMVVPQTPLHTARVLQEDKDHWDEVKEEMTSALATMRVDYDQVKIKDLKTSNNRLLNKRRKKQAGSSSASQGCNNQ
cKit(V654A)(h), sequence (P10721 26-976 V654A): as the sequence (P10721 26-976) above, with V629A counted along it
CDK5/p25(h), sequence (Q00535 whole entry): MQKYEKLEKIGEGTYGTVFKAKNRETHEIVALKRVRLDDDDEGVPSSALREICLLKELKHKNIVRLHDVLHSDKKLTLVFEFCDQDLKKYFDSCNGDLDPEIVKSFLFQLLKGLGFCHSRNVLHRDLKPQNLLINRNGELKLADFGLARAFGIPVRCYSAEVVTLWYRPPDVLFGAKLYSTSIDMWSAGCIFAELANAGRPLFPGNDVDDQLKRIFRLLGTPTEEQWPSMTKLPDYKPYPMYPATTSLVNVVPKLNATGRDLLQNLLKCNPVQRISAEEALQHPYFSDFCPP
CDK5/p25(h), sequence (Q15078 99-307 partner): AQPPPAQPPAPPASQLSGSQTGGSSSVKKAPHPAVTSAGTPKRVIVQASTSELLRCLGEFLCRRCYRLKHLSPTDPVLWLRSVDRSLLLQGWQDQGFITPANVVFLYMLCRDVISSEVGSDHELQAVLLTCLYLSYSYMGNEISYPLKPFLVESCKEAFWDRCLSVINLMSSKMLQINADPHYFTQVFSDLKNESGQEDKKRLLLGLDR
MAPK2(m), sequence (P63085 whole entry): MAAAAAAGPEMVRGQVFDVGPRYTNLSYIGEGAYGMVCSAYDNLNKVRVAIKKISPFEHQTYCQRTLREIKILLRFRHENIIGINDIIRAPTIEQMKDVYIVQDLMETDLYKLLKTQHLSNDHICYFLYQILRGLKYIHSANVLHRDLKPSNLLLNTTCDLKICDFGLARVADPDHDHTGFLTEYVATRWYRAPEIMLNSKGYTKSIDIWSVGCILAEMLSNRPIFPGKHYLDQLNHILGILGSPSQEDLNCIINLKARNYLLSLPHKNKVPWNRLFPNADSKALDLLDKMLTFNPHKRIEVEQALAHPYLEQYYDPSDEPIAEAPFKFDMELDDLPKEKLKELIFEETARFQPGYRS
Aurora-A(h), sequence (O14965 whole entry): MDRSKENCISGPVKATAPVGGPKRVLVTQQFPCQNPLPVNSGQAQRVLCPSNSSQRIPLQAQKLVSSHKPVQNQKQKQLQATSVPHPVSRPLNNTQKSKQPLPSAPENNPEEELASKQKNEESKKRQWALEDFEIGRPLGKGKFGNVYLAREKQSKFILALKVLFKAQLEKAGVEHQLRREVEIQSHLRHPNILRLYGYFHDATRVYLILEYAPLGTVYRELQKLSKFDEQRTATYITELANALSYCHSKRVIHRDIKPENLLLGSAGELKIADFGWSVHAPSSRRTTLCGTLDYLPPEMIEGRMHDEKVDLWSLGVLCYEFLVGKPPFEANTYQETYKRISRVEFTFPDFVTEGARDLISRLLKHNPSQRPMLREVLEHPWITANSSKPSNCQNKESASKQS
PKCδ(h), sequence (Q05655 whole entry): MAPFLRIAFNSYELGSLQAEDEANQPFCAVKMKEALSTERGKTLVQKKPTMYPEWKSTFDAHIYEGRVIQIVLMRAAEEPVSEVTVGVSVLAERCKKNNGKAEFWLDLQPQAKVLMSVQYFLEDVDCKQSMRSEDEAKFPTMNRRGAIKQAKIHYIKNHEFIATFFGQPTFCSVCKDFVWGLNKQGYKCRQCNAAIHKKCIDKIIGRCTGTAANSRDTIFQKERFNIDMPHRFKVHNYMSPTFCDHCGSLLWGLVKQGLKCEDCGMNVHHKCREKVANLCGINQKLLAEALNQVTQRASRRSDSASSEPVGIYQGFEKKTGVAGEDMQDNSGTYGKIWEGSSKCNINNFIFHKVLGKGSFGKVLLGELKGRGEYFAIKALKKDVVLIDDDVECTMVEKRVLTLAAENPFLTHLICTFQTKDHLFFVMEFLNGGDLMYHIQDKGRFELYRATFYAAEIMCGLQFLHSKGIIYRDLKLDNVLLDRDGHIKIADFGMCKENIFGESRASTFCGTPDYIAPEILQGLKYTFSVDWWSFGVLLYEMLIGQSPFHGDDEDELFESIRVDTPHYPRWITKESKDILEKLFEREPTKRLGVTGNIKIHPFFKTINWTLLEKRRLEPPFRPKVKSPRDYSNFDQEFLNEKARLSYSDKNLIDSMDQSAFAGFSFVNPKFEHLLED
PDGFRα (D842V), sequence (P16234 24-1089 D842V): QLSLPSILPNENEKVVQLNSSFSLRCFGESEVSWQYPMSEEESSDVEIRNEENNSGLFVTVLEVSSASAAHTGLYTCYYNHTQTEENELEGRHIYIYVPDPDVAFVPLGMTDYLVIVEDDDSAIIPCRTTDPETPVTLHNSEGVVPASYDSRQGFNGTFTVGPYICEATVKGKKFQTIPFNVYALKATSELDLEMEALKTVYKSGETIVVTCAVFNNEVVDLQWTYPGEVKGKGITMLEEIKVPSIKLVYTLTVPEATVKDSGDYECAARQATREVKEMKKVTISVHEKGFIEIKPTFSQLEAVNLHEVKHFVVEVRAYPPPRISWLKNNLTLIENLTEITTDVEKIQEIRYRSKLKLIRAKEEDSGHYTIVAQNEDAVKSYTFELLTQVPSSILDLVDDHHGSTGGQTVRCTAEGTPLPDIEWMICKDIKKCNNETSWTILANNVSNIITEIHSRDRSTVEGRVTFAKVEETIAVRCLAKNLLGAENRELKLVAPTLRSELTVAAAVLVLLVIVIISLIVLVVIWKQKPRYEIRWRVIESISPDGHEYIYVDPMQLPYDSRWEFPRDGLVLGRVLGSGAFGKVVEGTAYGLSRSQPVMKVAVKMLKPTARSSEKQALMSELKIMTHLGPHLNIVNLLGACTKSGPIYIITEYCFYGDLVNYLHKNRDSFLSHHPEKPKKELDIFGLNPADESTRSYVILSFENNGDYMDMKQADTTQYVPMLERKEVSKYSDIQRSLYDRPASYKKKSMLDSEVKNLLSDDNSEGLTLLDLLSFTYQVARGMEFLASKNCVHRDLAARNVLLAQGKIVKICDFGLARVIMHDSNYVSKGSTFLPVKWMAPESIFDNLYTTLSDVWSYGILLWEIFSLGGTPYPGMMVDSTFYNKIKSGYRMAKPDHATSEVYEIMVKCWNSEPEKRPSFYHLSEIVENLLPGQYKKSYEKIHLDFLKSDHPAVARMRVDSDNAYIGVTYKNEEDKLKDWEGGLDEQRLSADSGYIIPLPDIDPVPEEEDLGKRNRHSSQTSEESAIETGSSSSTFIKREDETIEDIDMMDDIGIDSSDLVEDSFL

Cc1ccc(NC(=O)c2ccc(C)c(C(F)(F)F)c2)cc1C#Cc1nn([C@H]2CC[C@H](O)CC2)c2ncnc(N)c12 [Compound 93]
remaining activity at 10 µM [1]: -1% | remaining activity at 10 µM [2]: 107% | remaining activity at 10 µM [3]: 0% | remaining activity at 10 µM [4]: 87% | remaining activity at 10 µM [5]: 94% | remaining activity at 10 µM [6]: 0% | remaining activity at 10 µM [7]: 7% | remaining activity at 10 µM [8]: 99% | remaining activity at 10 µM [9]: 56% | remaining activity at 10 µM [10]: 87% | remaining activity at 10 µM [11]: 68% | remaining activity at 10 µM [12]: 77% | remaining activity at 10 µM [13]: 96% | remaining activity at 10 µM [14]: 93% | remaining activity at 10 µM [15]: 90% | remaining activity at 10 µM ([16]; CSK(h), 10 μM, read-out: The percentage of the remaining active protein): -1% | IC50 ([16]; CSK, ATP at Km): 9 nM | remaining activity at 10 µM [17]: 97% | remaining activity at 10 µM [18]: 101% | IC50 [19]: 100 to 300 nM | remaining activity at 10 µM [20]: 126% | remaining activity at 10 µM [21]: 99% | remaining activity at 10 µM [22]: 100% | remaining activity at 10 µM [23]: 64% | remaining activity at 10 µM [24]: 96% | remaining activity at 10 µM [25]: 97% | remaining activity at 10 µM [26]: 89%

From patent publication US10266537B2, “3-acetylenyl-pyrazole-pyrimidine derivative, and preparation method therefor and uses thereof” (Si Chuan University, priority 2015, dated 2019)
